# Assay results published in US9694003B2, “Formulations and methods for treating high intraocular pressure” (Bridge Pharma, Inc., priority 2015, dated 2017).
# Experiments:
# cornea = settings: topical application to the eye, usual clinical concentration; cited from earlier work
# macrophages = settings: cited from earlier work
# eye = settings: cited from earlier work
# trabecular mesh = settings: within 15 minutes of exposure; cited from earlier work
# Aspergillus brasiliensis = assay: Preservation challenge test (USP 51), A. brasiliensis; type: cell-based; settings: saline formulation, pH 5.0
# Protocol: (§1) METHOD: The standardized Preservative Challenge Test (U.S. Pharmacopeia 51 Antimicrobial Effectiveness Testing) have been used for tests of self-preservation by norketotifen in concentrations to be used for patients suffering from allergic conjunctivitis and xerophthalmia. USP (51) is a standard test used to determine the antimicrobial effectiveness of test articles and ophthalmic formulations. The present tests were using 150 ml of each formulation and covered the mandatory five organisms: Escherichia coli (fermentative G−), Pseudomonas aeruginosa (non-fermentative G−), Staphylococcus aureus (G+), Aspergillus brasiliensis (mold), and Candida albicans (yeast). The number of inoculated cells was 0.5×10^5 per mL and the incubation temperature was 25° C. for all inoculations. Plating for measuring of recoveries were performed weekly over 4 weeks. The norketotifen formulations were defined as being self-preserving only if the numbers of cell colonies remained constant (fungi) and were declining (bacteria) according to the strictly standardized USP 51 protocol. […] All solutions used in the antimicrobial studies were devoid of added preservatives.
# (§2) USP Criteria for Tested Microorganisms (Category 1)
# (§3) Yeast and Molds (Fungi): No increase from the initial calculated count at 14 or 28 days.
# Escherichia coli = assay: Preservation challenge test (USP 51), E. coli; type: cell-based; settings: saline formulation, pH 5.0
# Protocol: as §1, §2
# (§4) Bacteria: Not less than a 3.0 logarithmic reduction from the initial count to the count at 14 days, and no increase from the counts at 14 days to the counts at 28 days.
# [1] = test system: Escherichia coli, Pseudomonas aeruginosa, Staphylococcus aureus, Aspergillus brasiliensis, Candida albicans; assay: Preservative Challenge Test (USP 51 Antimicrobial Effectiveness Testing), all five organisms; type: cell-based; settings: ocular formulation without preservatives, concentrations useful for decreasing IOP
# Protocol: METHOD: The standardized Preservative Challenge Test (U.S. Pharmacopeia 51 Antimicrobial Effectiveness Testing) have been used for tests of self-preservation by norketotifen in concentrations to be used for patients suffering from allergic conjunctivitis and xerophthalmia. USP (51) is a standard test used to determine the antimicrobial effectiveness of test articles and ophthalmic formulations. The present tests were using 150 ml of each formulation and covered the mandatory five organisms: Escherichia coli (fermentative G−), Pseudomonas aeruginosa (non-fermentative G−), Staphylococcus aureus (G+), Aspergillus brasiliensis (mold), and Candida albicans (yeast). The number of inoculated cells was 0.5×10^5 per mL and the incubation temperature was 25° C. for all inoculations. Plating for measuring of recoveries were performed weekly over 4 weeks. The norketotifen formulations were defined as being self-preserving only if the numbers of cell colonies remained constant (fungi) and were declining (bacteria) according to the strictly standardized USP 51 protocol. Tests were performed at pH 4.0, pH 4.5, pH 5.0 and pH 6.0 and the test articles were dissolved in BSA/water (BSA=bovine serum albumin) containing at least 0.01 percent norketotifen (calculated as free base). […]
# as §3
# Pseudomonas aeruginosa = assay: Preservation challenge test (USP 51), P. aeruginosa; type: cell-based; settings: saline formulation, pH 5.0
# Protocol: as §1, §2, §4
# Staphylococcus aureus = assay: Preservation challenge test (USP 51), S. aureus; type: cell-based; settings: saline formulation, pH 5.0
# Protocol: as §1, §2, §4
# Candida albicans = assay: Preservation challenge test (USP 51), C. albicans; type: cell-based; settings: saline formulation, pH 5.0
# Protocol: as §1, §2, §3
# rabbits = assay: Ocular irritation/toxicity study, repeated daily ocular doses; type: in vivo; settings: repeated daily doses for 6 weeks, highest concentration tested
# Protocol: (§5) Fifty-two rabbits (26F+26M) were assigned to four groups and were administered repeated daily doses of norketotifen HF solutions by the ocular route, 0.00, 0.0345, 0.0690 and 0.138 wt % for 6 weeks. […] In addition to regular toxicology parameters, ophthalmic parameters and ocular irritation scores were assessed. Blood samples were collected at predetermined time intervals. Plasma sample were analyzed using a validated LCMS-MS method. Plasma pharmacokinetics was calculated.
# [2] = test system: intraocular pressure in the eyes of rabbits; assay: Intraocular pressure during repeated daily norketotifen eye-drops; type: in vivo; settings: 6 rabbits
# Protocol: as §5
# In the previously described Ocular Irritation/Toxicity Study (Example 7), intraocular pressure was measured in the eyes of one group of rabbits (3M+3F), before, during and after repeated daily ocular treatment with norketotifen eye-drops. […] The group tested for effects on IOP consisted of 12 eyes and the dose administered was 0.14 wt % and norketotifen was administered daily for 6 weeks, followed by a two-week recovery period without norketotifen administration. Day 42 was the last day of the treatment period and Day 56 was the last day of the recovery period.
# [3] = Solubility of norketotifen HF in non-aqueous carriers; type: physicochemical
# Text: The intraocular formulations contain a carrier, such as water which is the carrier for an aqueous solution. Non-aqueous carriers include polyethylene glycol (PEG) and/or propylene glycol (PG) can be used in ophthalmic compositions. […] Norketotifen can be dissolved in water in concentrations up to about 0.2 wt %. Exemplary non-aqueous solvents include polyethylene glycol (about 0.1% to about 90%) and propylene glycol (about 0.1% to about 90%).
Compound,A. brasil CFU/ml (Aspergillus brasiliensis; Day 0) [CFU/ml],A. brasil CFU/ml (Aspergillus brasiliensis; Day 14) [CFU/ml],A. brasil Log Reduc (Aspergillus brasiliensis; Day 14),A. brasil CFU/ml (Aspergillus brasiliensis; Day 28) [CFU/ml],A. brasil Log Reduc (Aspergillus brasiliensis; Day 28),E. coli CFU/ml (Escherichia coli; Day 0) [CFU/ml],E. coli CFU/ml (Escherichia coli; Day 14),E. coli Log Reduc (Escherichia coli; Day 14),E. coli CFU/ml (Escherichia coli; Day 28),E. coli Log Reduc (Escherichia coli; Day 28),P. aerugin CFU/ml (Pseudomonas aeruginosa; Day 0) [CFU/ml],P. aerugin CFU/ml (Pseudomonas aeruginosa; Day 14),P. aerugin Log Reduc (Pseudomonas aeruginosa; Day 14),P. aerugin CFU/ml (Pseudomonas aeruginosa; Day 28),P. aerugin Log Reduc (Pseudomonas aeruginosa; Day 28),S. aureus CFU/ml (Staphylococcus aureus; Day 0) [CFU/ml],S. aureus CFU/ml (Staphylococcus aureus; Day 14),S. aureus Log Reduc (Staphylococcus aureus; Day 14),S. aureus CFU/ml (Staphylococcus aureus; Day 28),S. aureus Log Reduc (Staphylococcus aureus; Day 28),further results
benzalkonium chloride [BAK],–,–,–,–,–,–,–,–,–,–,–,–,–,–,–,–,–,–,–,–,"concentration causing corneal neurotoxicity (cornea): 0.01%; concentration that stimulates macrophages, increases phagocytosis and releases cytokines (macrophages): 0.0001%; concentration inducing toxic ocular effects (eye): ≥ 0.0001%; concentration expressing toxicity that targets the trabecular mesh (trabecular mesh): 0.0001%"
"CN1CCC(=C2c3ccccc3CC(=O)c3sccc32)CC1.O=C(O)/C=C/C(=O)O [KETO, RS-ketotifen hydrogen fumarate, reference compound]",3.6E+05,4.8E+05,None,2.0E+05,0.25,1.5E+06,2.5E+04 CFU/ml,1.78,2.6E+06 CFU/ml,None,3.1E+05,1.5E+4 CFU/ml,1.31,2.3E+05 CFU/ml,0.13,2.0E+06,3.3E+06 CFU/ml,None,3.6E+06 CFU/ml,None,"self-preservation test, conclusion [1]: not pass the self-preservation test; C. albic CFU/ml (Candida albicans; Day 0): 7.9E+05 CFU/ml; C. albic CFU/ml (Candida albicans; Day 14): 3.0E+03 CFU/ml; C. albic CFU/ml (Candida albicans; Day 28): 1.1E+03 CFU/ml; C. albic Log Reduc (Candida albicans; Day 28): 0.25"
"O=C(O)C=CC(=O)O.O=C1Cc2ccccc2C(=C2CCNCC2)c2ccsc21 [norketotifen HF, RS-norketotifen hydrogen fumarate]",7.0E+05,5.75E+02,3.09,3.10E+02,3.35,8.5E+05,<5.0+00 CFU/ml,>5.23,<5.0+00 CFU/ml,>5.23,4.7E+05,<5.0+00 CFU/ml,>4.79,<5.0+00 CFU/ml,>4.97,2.5E+05,<5.0+00 CFU/ml,>4.70,<5.0+00 CFU/ml,>4.70,"No-Observable-Adverse-Effect-Level (NOAEL) (rabbits): 0.138%; IOP (mm Hg; ± SD) ([2]; Day 1 (pretest), 12 eyes): 20.4 ± 2.9 mm Hg; IOP (mm Hg; ± SD) ([2]; Day 42 (treatment), 0.14 wt % eye-drops daily for 6 weeks, P = 0.0005 vs. Day 1): 16.5 ± 1.7 mm Hg; IOP (mm Hg; ± SD) ([2]; Day 56 (recovery, two weeks without dosing), P < 0.0001 vs. Day 42): 20.5 ± 1.6 mm Hg; C. albic CFU/ml (Candida albicans; Day 0): 6.0E+05 CFU/ml; C. albic CFU/ml (Candida albicans; Day 14): <5.0+00 CFU/ml; C. albic Log Reduc (Candida albicans; Day 14): >5.08; C. albic CFU/ml (Candida albicans; Day 28): <5.0+00 CFU/ml; C. albic Log Reduc (Candida albicans; Day 28): >5.08; solubility in polyethylene glycol (PEG 300) ([3]; PEG 300): about 0.15 percent w/w; solubility in propylene glycol ([3]; propylene glycol): up to 1.0 wt %"
